From patent US8729074B2, “Inhibitors of PI3 kinase” (Amgen Inc., priority 2009, dated 2014)

Tests used:
PI3Kα = PI3Kα (Homo sapiens (Human), UniProt P42336); assay: In vitro PI3K AlphaScreen assay; type: biochemical; details: average if run more than once
Protocol: In Vitro PI3K AlphaScreen® Assay
The PI3K AlphaScreen® assay (PerkinElmer, Waltham, Mass.) measures the activity of a panel of four phosphoinositide 3-kinases: PI3Kα, PI3Kβ, PI3Kγ, and PI3Kδ. Each of these enzymes phosphorylates the 3′-hydroxyl group on phosphatidylinositiol (4,5)-bisphosphate (PIP2) to produce phosphatidylinositol (3,4,5)-trisphosphate (PIP3). This phosphorylation activity is measured using a GST-tagged PIP3 binding protein (Echelon Biosciences, Salt Lake City, Utah), an anti-GST-tagged Acceptor bead, and streptavidin-Donor bead. […] In the absence of this interaction, proximity of the Donor and Acceptor beads is decreased, producing a loss of luminescent signal which is inversely proportional to PI3K activity.
The enzyme reaction buffer is made using sterile water (Baxter, Deerfield, Ill.) and 50 mM Tris HCl pH 7, 14 mM MgCl2, 2 mM sodium cholate, and 100 mM NaCl. 2 mM DTT is added fresh the day of the experiment. The AlphaScreen® reaction buffer is made using sterile water and 10 mM Tris HCl pH 7.5, 150 mM NaCl, 0.10% Tween 20, and 30 mM EDTA. 1 mM DTT is added fresh the day of the experiment.
The source plates for this assay are 384-well Greiner clear polypropylene plates containing test compounds at 5 mM and diluted 1:2 over 22 points. Columns 23 and 24 contain only DMSO as these are designated for positive and negative controls. Source plates are replicated into 384-well Optiplates (PerkinElmer, Waltham, Mass.), 0.5 μL/well, to make assay-ready plates.
The different PI3K isoforms are each diluted in enzyme reaction buffer to 2× working solutions. […] Two different 2× substrate solutions are made in enzyme reaction buffer. In one solution, PI(4,5)P2 (Echelon Biosciences, Salt Lake City, Utah) is diluted to 10 μM and ATP is diluted to 20 μM. This solution is used in the assays testing PI3Kα and PI3Kβ. In a second solution, PI(4,5)P2 is diluted to 10 μM and ATP is diluted to 8 μM. This solution is used in the assays testing PI3Kγ and PI3Kδ.
The AlphaScreen® reaction solutions are made using beads from the anti-GST AlphaScreen® kit (PerkinElmer, Waltham, Mass.). Two solutions are made in Alphascreen reaction buffer to 4× working concentrations. In one solution, biotinylated-IP4 (Echelon Biosciences, Salt Lake City, Utah) is diluted to 40 nM and streptavadin-Donor Beads are diluted to 80 μg/mL. In the second solution, PIP3-binding protein (Echelon Biosciences, Salt Lake City, Utah) is diluted to 40 nM and anti-GST-Acceptor Beads are diluted to 80 μg/mL. 10 μL/well of enzyme reaction buffer is added to Column 24 of the assay ready plates in place of enzyme. This is done for plates in the PI3Kα, β, and δ assays.
Using a 384-well dispensing Multidrop (Titertek, Huntsville, Ala.), 10 μL/well of 2× enzyme (PI3Kα, β, δ) is added to Columns 1-23 of the appropriate assay ready plates (for PI3Kγ 10 μL is added to Columns 1-24). 10 μL/well of the appropriate substrate solution (the solution with 20 μM ATP for PI3Kα and β assays, and the solution with […] for PI3Kγ and δ assays) is then added to Columns 1-24 of the plates. Plates are then incubated at room temperature for 20 minutes.
In the dark, 10 μL/well of the Donor Bead solution is added to Columns 1-24 of the plates to quench the enzyme reaction. The plates are incubated at room temperature for 30 minutes. Still in the dark, 10 μL/well of the Acceptor Bead solution is also added to Columns 1-24 of the plates. The plates are then incubated in the dark for 1.5 hours. The plates are read on an Envision Multilabel Plate Reader (PerkinElmer, Waltham, Mass.) with a 680 nm excitation filter and a 520-620 nm emission filter.
Activity data for the compounds tested in the assay is provided in Table 1 under the column heading PI3Kα AlphaScreen®.

mTOR = mTOR (Homo sapiens (Human), UniProt P42345); assay: In vitro mTOR Lanthascreen assay; type: biochemical; details: average if run more than once
Sequence of mTOR (P42345 1360-2549): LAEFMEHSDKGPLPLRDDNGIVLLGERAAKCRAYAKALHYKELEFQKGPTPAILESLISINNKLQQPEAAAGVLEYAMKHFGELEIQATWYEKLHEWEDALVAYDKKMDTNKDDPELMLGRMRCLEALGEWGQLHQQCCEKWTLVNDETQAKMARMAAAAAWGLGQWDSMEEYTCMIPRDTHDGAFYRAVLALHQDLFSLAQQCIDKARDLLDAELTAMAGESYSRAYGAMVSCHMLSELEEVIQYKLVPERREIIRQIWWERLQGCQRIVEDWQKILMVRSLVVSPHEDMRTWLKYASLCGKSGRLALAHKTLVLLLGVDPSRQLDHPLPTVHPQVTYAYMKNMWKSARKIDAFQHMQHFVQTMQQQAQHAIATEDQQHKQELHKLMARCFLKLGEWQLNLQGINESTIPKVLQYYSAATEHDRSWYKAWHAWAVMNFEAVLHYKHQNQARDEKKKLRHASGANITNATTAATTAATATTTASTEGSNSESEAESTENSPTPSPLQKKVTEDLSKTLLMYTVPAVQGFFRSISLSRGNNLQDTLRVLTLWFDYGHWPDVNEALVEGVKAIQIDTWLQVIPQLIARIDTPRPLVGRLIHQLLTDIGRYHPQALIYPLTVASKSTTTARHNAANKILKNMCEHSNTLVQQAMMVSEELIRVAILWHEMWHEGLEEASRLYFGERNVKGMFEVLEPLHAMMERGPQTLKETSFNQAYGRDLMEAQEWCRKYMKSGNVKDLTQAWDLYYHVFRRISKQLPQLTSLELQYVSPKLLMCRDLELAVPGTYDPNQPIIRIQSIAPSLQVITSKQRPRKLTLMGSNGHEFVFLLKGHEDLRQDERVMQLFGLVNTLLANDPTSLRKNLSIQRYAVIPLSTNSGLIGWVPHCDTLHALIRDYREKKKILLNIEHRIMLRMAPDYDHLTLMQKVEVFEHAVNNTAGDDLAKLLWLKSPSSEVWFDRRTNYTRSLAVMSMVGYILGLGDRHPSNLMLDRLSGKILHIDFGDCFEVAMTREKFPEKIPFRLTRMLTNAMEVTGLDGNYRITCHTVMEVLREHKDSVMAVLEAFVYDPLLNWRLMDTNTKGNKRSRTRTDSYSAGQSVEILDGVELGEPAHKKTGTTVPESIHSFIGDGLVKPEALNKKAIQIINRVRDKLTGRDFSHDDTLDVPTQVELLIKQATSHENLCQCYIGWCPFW
Source text: The Invitrogen (Carlsbad, Calif.) mammalian target of rapamycin (mTOR) Lanthascreen assay can be used to quantitate mTOR kinase activity in an in vitro setting. Active mTOR phosphorylates eukaryotic translation initiation factor 4E binding protein 1 (4E-BP1) on residue threonine 46. This phosphorylation event can be detected with a phospho-specific terbium (Tb) labeled Ab, in turn bringing the Tb label in close proximity to the GFP tagged 4E-BP 1 and allowing for time-resolved fluorescence resonance energy transfer (TR-FRET), which correlates 4E-BP1 phosphorylation levels with mTOR kinase activity.
Enzyme reaction buffer can be prepared in deionized water containing 50 mM HEPES (pH 7.5), 0.01% Polysorbate 20, 1 mM EGTA, and 10 mM MnCl2.
Dilutions of the compound to be tested can be prepared in 96-well polypropylene plates (Fisher Scientific, Waltham, Mass.). One row represents a 10-point dose of compound diluted 1:3 in enzyme reaction buffer and 20% dimethyl sulfoxide (DMSO). The top concentration for all compounds is 36 μM. Wells 6 and 12 can serve as the no compound (DMSO only) and high compound controls.
An mTOR substrate solution can prepared in enzyme reaction buffer containing 1600 nM green fluorescent protein tagged eukaryotic translation initiation factor 4E binding protein 1 (GFP-4E-BP1) (Invitrogen, Carlsbad, Calif.) and 28 uM adenosine triphosphate (ATP) (Calbiochem, Gibbstown, N.J.).
mTOR enzyme (Invitrogen, Carlsbad, Calif.) can be diluted in enzyme reaction buffer to a working concentration of 100 ng/mL.
The enzyme assay can be run in 384 well low volume assay plates (Corning, Corning, N.Y.). 2.5 uL of substrate solution containing GFP-4E-BP1 and ATP can be added to appropriate wells in the assay plate followed by 2.5 μL of compound dilutions. 5 μL of appropriately diluted mTOR enzyme can be added and the reaction allowed to proceed for 1 hour at room temperature. Final reagent concentrations in the enzyme assay are 50 ng/mL mTOR, 400 nM GFP-4E-BP1, and 7 μM ATP.
The enzyme assay can be terminated upon the addition of 10 μL of 20 mM EDTA and 4 nM Tb-labeled anti-phospho-4E-BP1 [T46] antibody (Invitrogen, Carlsbad, Calif.). The assay plate can then be incubated at room temperature for 1 hour and results read on a Tecan Safire II plate reader (Tecan, Männedorf, Switzerland).

Sequence of PI3Kα (P42336 whole entry): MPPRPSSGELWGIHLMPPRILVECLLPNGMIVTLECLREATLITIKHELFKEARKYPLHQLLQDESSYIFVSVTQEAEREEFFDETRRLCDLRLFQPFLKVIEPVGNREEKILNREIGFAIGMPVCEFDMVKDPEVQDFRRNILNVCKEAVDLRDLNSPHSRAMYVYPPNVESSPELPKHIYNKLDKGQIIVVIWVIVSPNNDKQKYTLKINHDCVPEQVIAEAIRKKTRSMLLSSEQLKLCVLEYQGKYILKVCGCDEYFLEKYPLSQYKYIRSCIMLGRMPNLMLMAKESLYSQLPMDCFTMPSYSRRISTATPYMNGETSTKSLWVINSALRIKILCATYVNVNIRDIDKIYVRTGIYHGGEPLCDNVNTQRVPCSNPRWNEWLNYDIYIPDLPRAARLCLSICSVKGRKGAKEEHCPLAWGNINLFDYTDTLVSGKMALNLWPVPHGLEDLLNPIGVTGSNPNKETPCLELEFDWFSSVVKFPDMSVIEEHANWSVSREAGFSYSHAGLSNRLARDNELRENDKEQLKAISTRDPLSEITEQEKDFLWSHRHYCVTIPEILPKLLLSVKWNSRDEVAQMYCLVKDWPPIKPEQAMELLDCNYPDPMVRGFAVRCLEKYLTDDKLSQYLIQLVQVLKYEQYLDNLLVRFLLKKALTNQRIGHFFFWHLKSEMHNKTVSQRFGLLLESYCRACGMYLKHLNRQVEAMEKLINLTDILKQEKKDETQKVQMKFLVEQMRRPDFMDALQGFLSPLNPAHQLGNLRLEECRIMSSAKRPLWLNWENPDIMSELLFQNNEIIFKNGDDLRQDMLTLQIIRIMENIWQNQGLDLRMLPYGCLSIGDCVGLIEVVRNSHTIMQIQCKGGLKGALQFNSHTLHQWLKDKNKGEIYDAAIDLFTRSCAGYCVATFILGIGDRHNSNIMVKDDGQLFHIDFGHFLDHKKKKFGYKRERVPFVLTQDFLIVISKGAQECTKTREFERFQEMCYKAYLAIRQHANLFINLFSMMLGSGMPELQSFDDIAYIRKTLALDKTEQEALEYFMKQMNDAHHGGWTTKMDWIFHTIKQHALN
Sequence of PI3Kα (P27986 whole entry partner): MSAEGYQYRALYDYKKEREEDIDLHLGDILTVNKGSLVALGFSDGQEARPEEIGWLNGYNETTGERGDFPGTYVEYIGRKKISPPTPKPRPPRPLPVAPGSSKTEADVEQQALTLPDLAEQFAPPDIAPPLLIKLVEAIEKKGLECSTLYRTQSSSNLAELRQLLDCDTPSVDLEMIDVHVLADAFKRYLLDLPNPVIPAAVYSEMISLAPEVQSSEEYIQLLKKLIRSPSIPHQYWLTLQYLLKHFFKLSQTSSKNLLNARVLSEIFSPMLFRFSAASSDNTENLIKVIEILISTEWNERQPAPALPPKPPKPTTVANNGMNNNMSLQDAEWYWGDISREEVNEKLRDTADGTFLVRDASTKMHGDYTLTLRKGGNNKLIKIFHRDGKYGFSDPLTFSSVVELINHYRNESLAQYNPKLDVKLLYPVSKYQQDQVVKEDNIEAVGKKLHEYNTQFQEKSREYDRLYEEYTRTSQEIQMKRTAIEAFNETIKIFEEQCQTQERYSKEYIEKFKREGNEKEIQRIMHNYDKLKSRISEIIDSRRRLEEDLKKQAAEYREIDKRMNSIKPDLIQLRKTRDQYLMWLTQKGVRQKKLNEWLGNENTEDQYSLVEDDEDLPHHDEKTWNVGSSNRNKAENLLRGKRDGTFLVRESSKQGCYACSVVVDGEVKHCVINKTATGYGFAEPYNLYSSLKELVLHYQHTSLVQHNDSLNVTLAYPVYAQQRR

Compound	Ki (PI3Kα) [nM]	IC50 (mTOR) [nM]
O=S(=O)(Nc1cc(-c2cnc3ccccn23)cnc1Cl)c1ccc(F)cc1 [Example 3, N-(2-Chloro-5-imidazo[1,2-a]pyridin-3-yl-3-pyridinyl)-4-fluorobenzenesulfonamide]	28	155
Cc1ccn2c(-c3cnc(Cl)c(NS(=O)(=O)c4ccc(F)cc4)c3)cnc2c1 [Example 4, N-(2-Chloro-5-(7-methylimidazo[1,2-a]pyridin-3-yl)-3-pyridinyl)-4-fluorobenzenesulfonamide]	19	–
Cc1nc2ccc(Br)cn2c1-c1cnc(Cl)c(NS(=O)(=O)c2ccc(F)cc2)c1 [Example 5, N-(5-(6-Bromo-2-methylimidazo[1,2-a]pyridin-3-yl)-2-chloro-3-pyridinyl)-4-fluorobenzenesulfonamide]	20	848
O=S(=O)(Nc1cc(-c2cnc3ccc(Br)cn23)cnc1Cl)c1ccc(F)cc1 [Example 6, N-(5-(6-Bromoimidazo[1,2-a]pyridin-3-yl)-2-chloro-3-pyridinyl)-4-fluorobenzenesulfonamide]	6	39
O=S(=O)(Nc1cc(-c2cnc3ccc(-c4ccncc4)cn23)cnc1Cl)c1ccc(F)cc1 [Example 7, N-(2-Chloro-5-(6-(4-pyridinyl)imidazo[1,2-a]pyridin-3-yl)-3-pyridinyl)-4-fluorobenzenesulfonamide]	2	36
O=S(=O)(Nc1cc(-c2cnc3ccc(-c4cccnc4)cn23)cnc1Cl)c1ccc(F)cc1 [Example 8, N-(2-Chloro-5-(6-(3-pyridinyl)imidazo[1,2-a]pyridin-3-yl)-3-pyridinyl)-4-fluorobenzenesulfonamide]	1	32
O=S(=O)(Nc1cc(-c2cnc3ccc(N4CCOCC4)cn23)cnc1Cl)c1ccc(F)cc1 [Example 9, N-(2-Chloro-5-(6-(4-morpholinyl)imidazo[1,2-a]pyridin-3-yl)-3-pyridinyl)-4-fluorobenzenesulfonamide]	4	364
COc1cc(-c2cnc3ccccn23)cnc1OC [Example 10, 3-(5,6-Dimethoxy-3-pyridinyl)imidazo[1,2-a]pyridine]	> 1500	> 50000
COc1cc(-c2cnc3ccc(Br)cn23)cnc1OC [Example 11, 6-Bromo-3-(5,6-dimethoxy-3-pyridinyl)imidazo[1,2-a]pyridine]	779	2170
COc1cc(-c2cnc3ccc(-c4ccncc4)cn23)cnc1OC [Example 12, 3-(5,6-Dimethoxy-3-pyridinyl)-6-(4-pyridinyl)imidazo[1,2-a]pyridine]	626	3750
COc1cc(-c2cnc3ccc(N4CCOC4=O)cn23)cnc1OC [Example 13, 3-(3-(5,6-Dimethoxy-3-pyridinyl)imidazo[1,2-a]pyridin-6-yl)-1,3-oxazolidin-2-one]	> 1500	9660
COc1cc(-c2cnc3ccc(N4CCOCC4)cn23)cnc1OC [Example 16, 3-(5,6-Dimethoxy-3-pyridinyl)-6-(4-morpholinyl)imidazo[1,2-a]pyridine]	1080	4520
CN(C)S(=O)(=O)Nc1cc(-c2cnc3ccc(-c4ccncc4)cn23)cnc1Cl [Example 18, N-(2-Chloro-5-(6-(pyridin-4-yl)imidazo[1,2-a]pyridin-3-yl)pyridin-3-yl)dimethylaminosulfonamide]	1	15
CN(C)S(=O)(=O)Nc1cc(-c2cnc3ccc(-c4ccnc(C(F)(F)F)c4)cn23)cnc1Cl [Example 19, N-(2-Chloro-5-(6-(2-(trifluoromethyl)pyridin-4-yl)imidazo[1,2-a]pyridin-3-yl)pyridin-3-yl)dimethylaminosulfonamid]	1	15
CS(=O)(=O)Nc1cc(-c2cnc3cc(-c4cccnc4)ccn23)cnc1Cl [Example 20, N-(2-Chloro-5-(7-(pyridin-3-yl)imidazo[1,2-a]pyridin-3-yl)pyridin-3-yl)methanesulfonamide]	5	32
CN(C)S(=O)(=O)Nc1cc(-c2cnc3cc(-c4ccncc4)ccn23)cnc1Cl [Example 21, N′-(2-Chloro-5-(7-(4-pyridinyl)imidazo[1,2-a]pyridin-3-yl)-3-pyridinyl)-N,N-dimethylsulfamide]	15	258
CN(C)S(=O)(=O)Nc1cc(-c2cnc3cc(-c4cccnc4)ccn23)cnc1Cl [Example 22, N′-(2-Chloro-5-(7-(3-pyridinyl)imidazo[1,2-a]pyridin-3-yl)-3-pyridinyl)-N,N-dimethylsulfamide]	21	157
Cc1cc2ncc(-c3cnc(Cl)c(NS(=O)(=O)N(C)C)c3)n2cc1-c1ccncc1 [Example 23, N′-(2-Chloro-5-(7-methyl-6-(4-pyridinyl)imidazo[1,2-a]pyridin-3-yl)-3-pyridinyl)-N,N-dimethylsulfamide]	4	18
O=S(=O)(Nc1cc(-c2cnc3ccc(Cl)nn23)cnc1Cl)c1ccc(F)cc1 [Example 25, N-(2-Chloro-5-(6-chloroimidazo[1,2-b]pyridazin-3-yl)pyridin-3-yl)-4-fluorobenzenesulfonamide]	22	102
